For 46 compounds, IC50 results are on record in patent US20100216791A1, “PYRIDINYLQUINAZOLINAMINE DERIVATIVES AND THEIR USE AS B-RAF INHIBITORS” (ASTRAZENECA, priority 2006, published 2010).

This test deals with Mutant B-Raf (V600E) enzyme (MT B-Raf) (Homo sapiens, UniProt P15056, V600E). The test can be described thus: biochemical. Particulars: B-Raf Alpha screen comparable to the described assay; phosphorylation of biotinylated HIS-MEK-AVI; results may be an average of two or more results.
Mutant B-Raf (V600E) enzyme (MT B-Raf), sequence (P15056 whole entry V600E): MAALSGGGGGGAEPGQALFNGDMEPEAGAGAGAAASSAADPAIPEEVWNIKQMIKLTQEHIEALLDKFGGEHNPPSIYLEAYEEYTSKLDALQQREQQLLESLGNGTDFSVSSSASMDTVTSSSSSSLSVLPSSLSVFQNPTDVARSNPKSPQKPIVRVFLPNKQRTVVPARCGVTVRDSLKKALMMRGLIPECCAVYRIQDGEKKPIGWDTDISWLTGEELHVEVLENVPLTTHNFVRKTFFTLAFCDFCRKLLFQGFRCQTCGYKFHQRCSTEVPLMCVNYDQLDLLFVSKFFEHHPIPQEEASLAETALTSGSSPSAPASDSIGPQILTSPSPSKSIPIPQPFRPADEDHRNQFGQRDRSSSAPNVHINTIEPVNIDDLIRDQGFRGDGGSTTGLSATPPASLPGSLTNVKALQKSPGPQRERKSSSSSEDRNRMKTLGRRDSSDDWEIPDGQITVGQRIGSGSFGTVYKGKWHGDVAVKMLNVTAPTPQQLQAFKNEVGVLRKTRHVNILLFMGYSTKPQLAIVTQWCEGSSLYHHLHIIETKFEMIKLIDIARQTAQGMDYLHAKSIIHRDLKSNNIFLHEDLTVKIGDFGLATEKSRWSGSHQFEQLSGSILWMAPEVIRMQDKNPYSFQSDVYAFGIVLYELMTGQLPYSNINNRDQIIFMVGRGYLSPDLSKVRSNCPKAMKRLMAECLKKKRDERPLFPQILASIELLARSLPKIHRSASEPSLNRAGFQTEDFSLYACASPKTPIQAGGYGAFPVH

For `CS(=O)(=O)c1ccc(Nc2ncc3cc(-c4ccncc4)ccc3n2)cc1` [Example 103, N-[4-(Methylsulfonyl)phenyl]-6-pyridin-4-ylquinazolin-2-amine], the IC50 worked out at 0.062 µM.

`O=C(NCC1CCNCC1)c1ccc(Nc2ncc3cc(-c4ccncc4)ccc3n2)cc1` [Example 64, N-(Piperidin-4-ylmethyl)-4-[(6-pyridin-4-ylquinazolin-2-yl)amino]benzamide] returned an IC50 of 0.022 µM.

Regarding `c1cc(-c2ccc3nc(Nc4ccc(N5CCCCC5)cc4)ncc3c2)ccn1` [Example 89, N-(4-Piperidin-1-ylphenyl)-6-pyridin-4-ylquinazolin-2-amine], half-maximal inhibition (IC50) required 0.28 µM. Compared with the last compound, the IC50 is about 13-fold higher.

Take `OCc1ccc(Nc2ncc3cc(-c4ccncc4)ccc3n2)cc1` [Example 78, {4-[(6-Pyridin-4-ylquinazolin-2-yl)amino]phenyl}methanol]: the midpoint of inhibition, the IC50, lay at 0.066 µM.

`c1cc(-c2ccc3nc(Nc4ccc(OCCN5CCOCC5)cc4)ncc3c2)ccn1` [Example 43, N-[4-(2-Morpholin-4-ylethoxy)phenyl]-6-pyridin-4-ylquinazolin-2-amine] yielded an IC50 of 0.16 µM. Against the preceding compound, the IC50 is about 2.4-fold higher.

`COCCNC(=O)c1ccnc(Nc2ncc3cc(-c4ccncc4)ccc3n2)c1` [Example 37, N-(2-Methoxyethyl)-2-[(6-pyridin-4-ylquinazolin-2-yl)amino]isonicotinamide]: the IC50 came out at 1.7 µM.

Take `O=C(NCC(O)CO)c1ccc(Nc2ncc3cc(-c4ccncc4)ccc3n2)cc1` (stereo not shown) [Example 61, N-(2,3-Dihydroxypropyl)-4-[(6-pyridin-4-ylquinazolin-2-yl)amino]benzamide]: it took 0.1 µM to reach half-maximal inhibition (IC50). Against the preceding compound, the IC50 is about 17-fold lower.

With `O=S(=O)(c1ccc(Nc2ncc3cc(-c4ccncc4)ccc3n2)cc1)N1CCOCC1` [Example 94, N-[4-(Morpholin-4-ylsulfonyl)phenyl]-6-pyridin-4-ylquinazolin-2-amine], the IC50 is 0.3 µM.

In turn, `Nc1ccc(Nc2ncc3cc(-c4ccncc4)ccc3n2)cc1` [Example 137] registered an IC50 of 0.08 µM. Compared with the last compound, the IC50 is about 3.8-fold lower.

Consider `COC(=O)c1ccc(Nc2ncc3cc(-c4ccncc4)ccc3n2)cc1` [Example 9, Methyl 4-[(6-pyridin-4-ylquinazolin-2-yl)amino]benzoate], for which half-maximal inhibition (IC50) required 0.23 µM.

For `CN1CCN(Cc2ccc(Nc3ncc4cc(-c5ccncc5)ccc4n3)cc2)CC1` [Example 132], half-maximal inhibition (IC50) required 0.073 µM.

Regarding `COc1cc(Nc2ncc3cc(-c4ccncc4)ccc3n2)cc(C(F)(F)F)c1` [Example 101, N-[3-Methoxy-5-(trifluoromethyl)phenyl]-6-pyridin-4-ylquinazolin-2-amine], the IC50 was determined as 1.7 µM.

With `CN(CCCNC(=O)c1ccc(Nc2ncc3cc(-c4ccncc4)ccc3n2)cc1)C(=O)OC(C)(C)C` [Example 13, tert-Butyl methyl[3-({4-[(6-pyridin-4-ylquinazolin-2-yl)amino]benzoyl}amino)propyl]carbamate], the IC50 stood at 0.31 µM.

In turn, `c1cc(-c2ccc3nc(Nc4ccc5c(c4)OCCO5)ncc3c2)ccn1` [Example 45, N-(2,3-Dihydro-1,4-benzodioxin-6-yl)-6-pyridin-4-ylquinazolin-2-amine] returned an IC50 of 0.3 µM.

In the case of `O=S(=O)(c1cccc(Nc2ncc3cc(-c4ccncc4)ccc3n2)c1)N1CCCCC1` [Example 100, N-[3-(Piperidin-1-ylsulfonyl)phenyl]-6-pyridin-4-ylquinazolin-2-amine], the IC50 came to 1 µM.

`CC(c1ccc(Nc2ncc3cc(-c4ccncc4)ccc3n2)cc1)N1CCCC1` (stereo not shown) [Example 131, 6-(Pyridin-4-yl)-N-(4-(1-(pyrrolidin-1-yl)ethyl)phenyl)quinazolin-2-amine] showed a half-maximal inhibitory concentration (IC50) of 0.019 µM.

`CCCNC(C)c1ccc(Nc2ncc3cc(-c4ccncc4)ccc3n2)cc1` (stereo not shown) [Example 138] showed an IC50 of 0.047 µM.

On to `CC(NCCCO)c1ccc(Nc2ncc3cc(-c4ccncc4)ccc3n2)cc1` (stereo not shown) [Example 58, 3-[(1-{4-[(6-Pyridin-4-ylquinazolin-2-yl)amino]phenyl}ethyl)amino]propan-1-ol], for which 0.036 µM corresponded to half-maximal inhibition (IC50). The IC50 values of the last two compounds are within 1.5-fold of each other.

For the compound `NCCNC(=O)c1ccc(Nc2ncc3cc(-c4ccncc4)ccc3n2)cc1` [Example 63, N-(2-Aminoethyl)-4-[(6-pyridin-4-ylquinazolin-2-yl)amino]benzamide], the midpoint of inhibition, the IC50, lay at 0.098 µM.

Consider `CC(c1ccc(Nc2ncc3cc(-c4ccncc4)ccc3n2)cc1)N(C)C` (stereo not shown) [Example 133], for which half-maximal inhibition (IC50) required 0.046 µM. This IC50 lies about 2.1-fold lower than the previous one.

`CC(C)(C)OC(=O)NCCNC(=O)c1ccc(Nc2ncc3cc(-c4ccncc4)ccc3n2)cc1` [Example 25, tert-Butyl [2-({4-[(6-pyridin-4-ylquinazolin-2-yl)amino]benzoyl}amino)ethyl]carbamate]: the IC50 was determined as 0.39 µM.

Compound `Oc1ccc(Nc2ncc3cc(-c4ccncc4)ccc3n2)cc1` [Example 81, 4-[(6-Pyridin-4-ylquinazolin-2-yl)amino]phenol] returned an IC50 of 0.061 µM.

Turning to `CCN(CCO)c1ccc(Nc2ncc3cc(-c4ccncc4)ccc3n2)cc1` [Example 92, 2-(Ethyl{4-[(6-pyridin-4-ylquinazolin-2-yl)amino]phenyl}amino)ethanol], the midpoint of inhibition, the IC50, lay at 0.092 µM.

With `CN(C)CCCNC(=O)c1ccc(Nc2ncc3cc(-c4ccncc4)ccc3n2)cc1` [Example 31, N-[3-(Dimethylamino)propyl]-4-[(6-pyridin-4-ylquinazolin-2-yl)amino]benzamide], 0.082 µM corresponded to half-maximal inhibition (IC50).

As for `CC(C)Oc1cccc(Nc2ncc3cc(-c4ccncc4)ccc3n2)c1` [Example 86, N-(3-Isopropoxyphenyl)-6-pyridin-4-ylquinazolin-2-amine], the IC50 stood at 1.5 µM.

The compound `CCCCNS(=O)(=O)c1cccc(Nc2ncc3cc(-c4ccncc4)ccc3n2)c1` [Example 84, N-Butyl-3-[(6-pyridin-4-ylquinazolin-2-yl)amino]benzenesulfonamide] displayed an IC50 of 0.82 µM.

For `COCCCNC(C)c1ccc(Nc2ncc3cc(-c4ccncc4)ccc3n2)cc1` (stereo not shown) [Example 55, N-(4-{1-[(3-Methoxypropyl)amino]ethyl}phenyl)-6-pyridin-4-ylquinazolin-2-amine], it took 0.022 µM to reach half-maximal inhibition (IC50).

As to `CC(c1ccc(Nc2ncc3cc(-c4ccncc4)ccc3n2)cc1)N(C)C` (single isomer, unassigned) [Example 140], the midpoint of inhibition, the IC50, lay at 0.021 µM.

As for `CC(C)(C)OC(=O)N1CCCC1CNC(=O)c1ccc(Nc2ncc3cc(-c4ccncc4)ccc3n2)cc1` (stereo not shown) [Example 19, tert-Butyl 2-[({4-[(6-pyridin-4-ylquinazolin-2-yl)amino]benzoyl}amino)methyl]pyrrolidine-1-carboxylate], the IC50 was 0.49 µM.

Turning to `c1cc(-c2ccc3nc(Nc4ccc(N5CCOCC5)cc4)ncc3c2)ccn1` [Example 79, N-(4-Morpholin-4-ylphenyl)-6-pyridin-4-ylquinazolin-2-amine], the IC50 worked out at 0.13 µM.

As for `CC(C)(C)OC(=O)NCCCNC(=O)c1ccc(Nc2ncc3cc(-c4ccncc4)ccc3n2)cc1` [Example 26, tert-Butyl [3-({4-[(6-pyridin-4-ylquinazolin-2-yl)amino]benzoyl}amino)propyl]carbamate], the IC50 worked out at 0.55 µM.

`Cc1cc(Nc2ncc3cc(-c4ccncc4)ccc3n2)ccc1C(=O)NCCN1CCCCC1` [Example 51, 2-Methyl-N-(2-(piperidin-1-yl)ethyl)-4-(6-(pyridin-4-yl)quinazolin-2-ylamino)benzamide] had an IC50 of 0.13 µM.

As to `COCCNC(=O)c1ccc(Nc2ncc3cc(-c4ccncc4F)ccc3n2)cc1` [Example 48, 4-{[6-(3-Fluoropyridin-4-yl)quinazolin-2-yl]amino}-N-(2-methoxyethyl)benzamide], the IC50 was determined as 0.27 µM.

`O=S(=O)(c1ccc(Nc2ncc3cc(-c4ccncc4)ccc3n2)cc1)C(F)F` [Example 95, N-{4-[(Difluoromethyl)sulfonyl]phenyl}-6-pyridin-4-ylquinazolin-2-amine]: half-maximal inhibition (IC50) required 1 µM.

Turning to `CN(C)C1CCN(C(=O)c2ccc(Nc3ncc4cc(-c5ccncc5)ccc4n3)cc2)C1` (stereo not shown) [Example 117], the IC50 is 0.073 µM.

In turn, `COCCNS(=O)(=O)c1ccc(Nc2ncc3cc(-c4ccncc4)ccc3n2)cc1` [Example 113] displayed an IC50 of 0.1 µM.

Consider `COCCNC(=O)c1ccc(Nc2ncc3cc(-c4ccncc4)ccc3n2)c(OC)c1` [Example 114], for which half-maximal inhibition (IC50) was put at 6.8 µM.

`CN1CCCN(C(=O)c2ccc(Nc3ncc4cc(-c5ccncc5)ccc4n3)cc2)CC1` [Example 116, N-{4-[(4-Methyl-1,4-diazepan-1-yl)carbonyl]phenyl}-6-pyridin-4-ylquinazolin-2-amine] yielded an IC50 of 0.063 µM.

In the case of `CN(C)C(=O)c1ccc(Nc2ncc3cc(-c4ccncc4)ccc3n2)cc1` [Example 30, N,N-Dimethyl-4-[(6-pyridin-4-ylquinazolin-2-yl)amino]benzamide], the IC50 was found to be 0.083 µM.

For the compound `O=C(O)c1ccc(Nc2ncc3cc(-c4ccncc4)ccc3n2)cc1` [Example 122, 4-(6-(Pyridin-4-yl)quinazolin-2-ylamino)benzoic acid], 0.078 µM corresponded to half-maximal inhibition (IC50). This IC50 and that of the compound before are within 1.5-fold of each other.

In the case of `Cc1nc2cc(Nc3ncc4cc(-c5ccncc5)ccc4n3)ccc2o1` [Example 109, N-(2-Methyl-1,3-benzoxazol-5-yl)-6-pyridin-4-ylquinazolin-2-amine], the concentration for half-maximal inhibition (IC50) came out at 0.94 µM.

`Fc1cccc(Nc2ncc3cc(-c4ccncc4)ccc3n2)c1` [Example 98, N-(3-Fluorophenyl)-6-pyridin-4-ylquinazolin-2-amine] returned an IC50 of 0.63 µM.

For the compound `CN(C)CCOc1ccc(Nc2ncc3cc(-c4ccncc4)ccc3n2)cc1` [Example 40, N-{4-[2-(Dimethylamino)ethoxy]phenyl}-6-pyridin-4-ylquinazolin-2-amine], the IC50 amounted to 0.16 µM. Compared with the last compound, the IC50 is about 3.9-fold lower.

In turn, `FC(F)(F)c1cccc(Nc2ncc3cc(-c4ccncc4)ccc3n2)c1` [Example 82, 6-Pyridin-4-yl-N-[3-(trifluoromethyl)phenyl]quinazolin-2-amine] came in with an IC50 of 3.1 µM.

The compound `O=C(NCCOCCO)c1ccc(Nc2ncc3cc(-c4ccncc4)ccc3n2)cc1` [Example 8, N-[2-(2-Hydroxyethoxy)ethyl]-4-[(6-pyridin-4-ylquinazolin-2-yl)amino]benzamide] displayed an IC50 of 0.12 µM.

Regarding `O=C1CCCN1c1ccc(Nc2ncc3cc(-c4ccncc4)ccc3n2)cc1` [Example 54, 1-{4-[(6-Pyridin-4-ylquinazolin-2-yl)amino]phenyl}pyrrolidin-2-one], inhibition was half-maximal at 0.12 µM (IC50). In other words, the sub-micromolar range.
